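Where inhibition never reached the appropriate level, the endpoint shown equals the highest concentration tested. Otherwise, values were interpolated linearly from a five-concentration, 48-hour dose response in 96-well plates. GI50 = concentration required for 50% inhibition of growth. TGI: total growth inhibition.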
Columns and labels:
Experiment in all cases: NCI tumour cell line growth inhibition, 48 h
TK-10 renal = system: TK-10 renal
SK-MEL-2 melanoma = system: SK-MEL-2 melanoma
MCF7 breast = system: MCF7 breast
T-47D breast = system: T-47D breast
MDA-MB-435 = system: MDA-MB-435
PC-3 prostate = system: PC-3 prostate
EKVX NSCLC = system: EKVX NSCLC
NCI-H226 lung = system: NCI-H226 lung
NCI-H460 lung = system: NCI-H460 lung
MOLT-4 leukemia = system: MOLT-4 leukemia
SR leukemia = system: SR leukemia
BT-549 breast = system: BT-549 breast
OVCAR-8 ovarian = system: OVCAR-8 ovarian
786-0 renal = system: 786-0 renal
UACC-62 melanoma = system: UACC-62 melanoma
HCT-116 colon = system: HCT-116 colon
SW-620 colon = system: SW-620 colon
U251 CNS = system: U251 CNS
SN12C renal = system: SN12C renal
IGROV1 ovarian = system: IGROV1 ovarian
MDA-MB-231 breast = system: MDA-MB-231 breast
MALME-3M melanoma = system: MALME-3M melanoma
NCI/ADR-RES ovarian = system: NCI/ADR-RES ovarian
ACHN renal = system: ACHN renal
LOX IMVI melanoma = system: LOX IMVI melanoma
OVCAR-4 ovarian = system: OVCAR-4 ovarian
KM12 colon = system: KM12 colon
DU-145 prostate = system: DU-145 prostate
HOP-92 NSCLC = system: HOP-92 NSCLC
SF-539 CNS = system: SF-539 CNS
SK-OV-3 ovarian = system: SK-OV-3 ovarian
RPMI-8226 leukemia = system: RPMI-8226 leukemia
RXF 393 renal = system: RXF 393 renal
SNB-19 CNS = system: SNB-19 CNS
K-562 leukemia = system: K-562 leukemia
CCRF-CEM leukemia = system: CCRF-CEM leukemia
COLO 205 colon = system: COLO 205 colon
HCT-15 colon = system: HCT-15 colon
SK-MEL-5 melanoma = system: SK-MEL-5 melanoma
SNB-75 CNS = system: SNB-75 CNS
CAKI-1 renal = system: CAKI-1 renal
NCI-H522 lung = system: NCI-H522 lung
OVCAR-5 ovarian = system: OVCAR-5 ovarian
HS 578T breast = system: HS 578T breast
UO-31 renal = system: UO-31 renal
HT29 colon = system: HT29 colon
SK-MEL-28 melanoma = system: SK-MEL-28 melanoma
HOP-62 NSCLC = system: HOP-62 NSCLC
HCC-2998 colon = system: HCC-2998 colon
OVCAR-3 ovarian = system: OVCAR-3 ovarian
A549 NSCLC = system: A549 NSCLC
M14 melanoma = system: M14 melanoma
A498 renal = system: A498 renal
HL-60(TB) leukemia = system: HL-60(TB) leukemia
SF-268 CNS = system: SF-268 CNS
UACC-257 melanoma = system: UACC-257 melanoma
SF-295 CNS = system: SF-295 CNS

Which GI50 (TK-10 renal) does the source give for `Cc1cc2c(-c3ccc(NC(=O)[C@H](N)CC(C)(C)C)cc3C)ccnc2[nH]1` here?
The GI50 was 12.6 µM.

And the TGI (TK-10 renal)?
Its TGI is 25.3 µM.

What about the GI50 (SK-MEL-2 melanoma) of the same molecule?
Its GI50 is 14 µM.

What about the TGI (SK-MEL-2 melanoma) of the same molecule?
Its TGI is 27.2 µM.

What about the GI50 (MCF7 breast) of the same molecule?
The GI50 was 5.54 µM.

What about the TGI (MCF7 breast) of the same molecule?
Its TGI is 30.5 µM.

What about the GI50 (T-47D breast) of the same molecule?
The GI50 was 6.71 µM.

What about the TGI (T-47D breast) of the same molecule?
The TGI was 24.8 µM.

What about the GI50 (MDA-MB-435) of the same molecule?
The GI50 was 7 µM.

And the TGI (MDA-MB-435)?
The TGI was 19.9 µM.

What about the GI50 (PC-3 prostate) of the same molecule?
Its GI50 is 7.91 µM.

And the TGI (PC-3 prostate)?
Its TGI is 22.1 µM.

And the GI50 (EKVX NSCLC)?
The GI50 was 11.2 µM.

What about the TGI (EKVX NSCLC) of the same molecule?
The TGI was 28.3 µM.

What about the GI50 (NCI-H226 lung) of the same molecule?
The GI50 was 10.7 µM.

What about the TGI (NCI-H226 lung) of the same molecule?
The TGI was 27.2 µM.

What about the GI50 (NCI-H460 lung) of the same molecule?
The GI50 was 5.7 µM.

What about the TGI (NCI-H460 lung) of the same molecule?
The TGI was 19 µM.

What about the GI50 (MOLT-4 leukemia) of the same molecule?
Its GI50 is 4.69 µM.

And the TGI (MOLT-4 leukemia)?
Its TGI is 24 µM.

What about the GI50 (SR leukemia) of the same molecule?
Its GI50 is 2.08 µM.

And the TGI (SR leukemia)?
The TGI was 6.37 µM.

And the GI50 (BT-549 breast)?
The GI50 was 6.31 µM.

And the TGI (BT-549 breast)?
The TGI was 19.5 µM.

What about the GI50 (OVCAR-8 ovarian) of the same molecule?
The GI50 was 13.6 µM.

And the TGI (OVCAR-8 ovarian)?
Its TGI is 28 µM.

What about the GI50 (786-0 renal) of the same molecule?
The GI50 was 1.81 µM.

And the TGI (786-0 renal)?
The TGI was 3.4 µM.

What about the GI50 (UACC-62 melanoma) of the same molecule?
Its GI50 is 8.6 µM.

And the TGI (UACC-62 melanoma)?
The TGI was 21 µM.

And the GI50 (HCT-116 colon)?
Its GI50 is 4.85 µM.

What about the TGI (HCT-116 colon) of the same molecule?
The TGI was 16.5 µM.

And the GI50 (SW-620 colon)?
The GI50 was 5.63 µM.

And the TGI (SW-620 colon)?
The TGI was 19.7 µM.

What about the GI50 (U251 CNS) of the same molecule?
Its GI50 is 5.99 µM.

And the TGI (U251 CNS)?
Its TGI is 19.5 µM.

And the GI50 (SN12C renal)?
The GI50 was 11.1 µM.

What about the TGI (SN12C renal) of the same molecule?
The TGI was 23.6 µM.

And the GI50 (IGROV1 ovarian)?
Its GI50 is 12.2 µM.

And the TGI (IGROV1 ovarian)?
Its TGI is 26.1 µM.

And the GI50 (MDA-MB-231 breast)?
Its GI50 is 7.43 µM.

And the TGI (MDA-MB-231 breast)?
Its TGI is 20.7 µM.

What about the GI50 (MALME-3M melanoma) of the same molecule?
Its GI50 is 10.2 µM.

And the TGI (MALME-3M melanoma)?
The TGI was 22.8 µM.

What about the GI50 (NCI/ADR-RES ovarian) of the same molecule?
Its GI50 is 13.4 µM.

And the TGI (NCI/ADR-RES ovarian)?
The TGI was 35.8 µM.

What about the GI50 (ACHN renal) of the same molecule?
Its GI50 is 10.5 µM.

And the TGI (ACHN renal)?
The TGI was 22.3 µM.

What about the GI50 (LOX IMVI melanoma) of the same molecule?
Its GI50 is 5.9 µM.

And the TGI (LOX IMVI melanoma)?
Its TGI is 25.9 µM.

What about the GI50 (OVCAR-4 ovarian) of the same molecule?
Its GI50 is 6.95 µM.

And the TGI (OVCAR-4 ovarian)?
Its TGI is 20.8 µM.

What about the GI50 (KM12 colon) of the same molecule?
Its GI50 is 6.1 µM.

What about the TGI (KM12 colon) of the same molecule?
The TGI was 21.2 µM.

And the GI50 (DU-145 prostate)?
The GI50 was 12.4 µM.

And the TGI (DU-145 prostate)?
Its TGI is 25.5 µM.

And the GI50 (HOP-92 NSCLC)?
Its GI50 is 2.67 µM.

What about the TGI (HOP-92 NSCLC) of the same molecule?
The TGI was 10.3 µM.

And the GI50 (SF-539 CNS)?
The GI50 was 7.97 µM.

What about the TGI (SF-539 CNS) of the same molecule?
Its TGI is 21 µM.

And the GI50 (SK-OV-3 ovarian)?
Its GI50 is 12.4 µM.

What about the TGI (SK-OV-3 ovarian) of the same molecule?
The TGI was 25.2 µM.

And the GI50 (RPMI-8226 leukemia)?
Its GI50 is 2.77 µM.

And the TGI (RPMI-8226 leukemia)?
Its TGI is 7.82 µM.

And the GI50 (RXF 393 renal)?
Its GI50 is 3.68 µM.

And the TGI (RXF 393 renal)?
Its TGI is 16 µM.

And the GI50 (SNB-19 CNS)?
Its GI50 is 11.3 µM.

And the TGI (SNB-19 CNS)?
The TGI was 23.5 µM.

And the GI50 (K-562 leukemia)?
The GI50 was 2.82 µM.

And the TGI (K-562 leukemia)?
The TGI was 41.2 µM.

And the GI50 (CCRF-CEM leukemia)?
The GI50 was 5.41 µM.

What about the TGI (CCRF-CEM leukemia) of the same molecule?
The TGI was 28.2 µM.

And the GI50 (COLO 205 colon)?
The GI50 was 1.82 µM.

What about the TGI (COLO 205 colon) of the same molecule?
Its TGI is 3.54 µM.

What about the GI50 (HCT-15 colon) of the same molecule?
The GI50 was 4.52 µM.

And the TGI (HCT-15 colon)?
The TGI was 21.8 µM.

And the GI50 (SK-MEL-5 melanoma)?
The GI50 was 2.46 µM.

What about the TGI (SK-MEL-5 melanoma) of the same molecule?
The TGI was 6.53 µM.

And the GI50 (SNB-75 CNS)?
Its GI50 is 4.72 µM.

What about the TGI (SNB-75 CNS) of the same molecule?
Its TGI is 18.1 µM.

And the GI50 (CAKI-1 renal)?
Its GI50 is 4.5 µM.

What about the TGI (CAKI-1 renal) of the same molecule?
Its TGI is 16.3 µM.

And the GI50 (NCI-H522 lung)?
The GI50 was 13 µM.

What about the TGI (NCI-H522 lung) of the same molecule?
Its TGI is 26.3 µM.

What about the GI50 (OVCAR-5 ovarian) of the same molecule?
The GI50 was 10.4 µM.

What about the TGI (OVCAR-5 ovarian) of the same molecule?
The TGI was 22.3 µM.

And the GI50 (HS 578T breast)?
Its GI50 is 1.42 µM.

What about the TGI (HS 578T breast) of the same molecule?
Its TGI is 12.3 µM.

And the GI50 (UO-31 renal)?
Its GI50 is 4.62 µM.

And the TGI (UO-31 renal)?
Its TGI is 18.1 µM.

And the GI50 (HT29 colon)?
The GI50 was 2.72 µM.

What about the TGI (HT29 colon) of the same molecule?
Its TGI is 8.84 µM.

And the GI50 (SK-MEL-28 melanoma)?
The GI50 was 8.48 µM.

And the TGI (SK-MEL-28 melanoma)?
The TGI was 20.8 µM.

And the GI50 (HOP-62 NSCLC)?
Its GI50 is 11.4 µM.

And the TGI (HOP-62 NSCLC)?
The TGI was 24.6 µM.

And the GI50 (HCC-2998 colon)?
Its GI50 is 5.81 µM.

What about the TGI (HCC-2998 colon) of the same molecule?
The TGI was 20.9 µM.

And the GI50 (OVCAR-3 ovarian)?
Its GI50 is 11.6 µM.

What about the TGI (OVCAR-3 ovarian) of the same molecule?
The TGI was 24.8 µM.

And the GI50 (A549 NSCLC)?
Its GI50 is 10.3 µM.

And the TGI (A549 NSCLC)?
Its TGI is 26 µM.

And the GI50 (M14 melanoma)?
Its GI50 is 11 µM.

And the TGI (M14 melanoma)?
Its TGI is 23.5 µM.

What about the GI50 (A498 renal) of the same molecule?
Its GI50 is 2.2 µM.

And the TGI (A498 renal)?
The TGI was 12.8 µM.

And the GI50 (HL-60(TB) leukemia)?
The GI50 was 2.89 µM.

And the TGI (HL-60(TB) leukemia)?
Its TGI is 14 µM.

What about the GI50 (SF-268 CNS) of the same molecule?
Its GI50 is 11.1 µM.

And the TGI (SF-268 CNS)?
The TGI was 26.6 µM.

And the GI50 (UACC-257 melanoma)?
Its GI50 is 10.5 µM.

And the TGI (UACC-257 melanoma)?
The TGI was 23 µM.

What about the GI50 (SF-295 CNS) of the same molecule?
The GI50 was 8.33 µM.

And the TGI (SF-295 CNS)?
Its TGI is 25.7 µM.

— PubChem BioAssay (NCI)
